This is an account of results in patent US9234004B2, “Antimicrobial peptides” (Agency for Science, Technology and Research, priority 2010, dated 2016).

≈ marks a conversion by molar mass, not a printed value. Where two headings read alike, the source gives them in different places. Bridge positions count the residues as written; N and C are the ends. Ends that are not written are not given here. Peptide text beside a SMILES is read from it. I, II: the chains in the order shown. Where only a bound is given, the exact number is not on record here.

What all share (type): cell-based
Data set [1] deals with human red blood cells (hRBC). How it is done:
The peptides' hemolysis was tested in human red blood cells (hRBC). hRBCs were diluted 25× to achieve 4% concentration (v %) in phosphate-buffered saline (PBS, pH 7.4). Upon dilution, the blood suspension was treated with equal volume of (LLKK)4 (SEQ ID NO: 8), [(LLKK)2]2, or [(LLKK)2]4 peptide solution in PBS to reach final peptide concentrations of 0-500 mg/L. The treatment was performed inside a 37° C. incubator for 1 hour, after which the mixture was centrifuged at 1000 g for 5 mins to remove the non-hemolysed blood cells. The supernatant (100 μL) was transferred into a 96-well plate, and measured spectrophotometrically for its absorbance at 567 nm using a microplate reader (TECAN, Switzerland)^[5]. PBS and 0.1% Triton-X were used as negative and positive controls respectively. Hemolysis level was calculated according to the following formula: % Hemolytic=(Absorbance for Peptide treatment−Absorbance for PBS treatment)/(Absorbance for Triton treatment−Absorbance for PBS treatment)×100% Minimum Inhibitory Concentration (MIC)

In data set [2] the test system is E. coli (ATCC No. 25922). The conditions noted are these: ATCC No. 25922, 18 h. The protocol:
(§1) Microbes were re-constituted from their dried pellets obtained from ATCC according to the recommended protocols. Bacterial culture was done in tryptic soy broth at 37° C., while yeast was cultured in yeast mould broth at room temperature, under constant shaking at 100 rpm. Briefly, microbial suspension was first adjusted to contain ˜3×10^8 CFU/mL, by adjusting its 600 nm absorbance to be equivalent to that of the standard McFarland 1 reference. The suspension was then diluted to contain ˜3×10^6 CFU/mL. Under this condition, the O.D. reading was approximately 0.05-0.06 for bacterial cultures, and 0.03-0.04 for yeast cultures. Equal volume (100 μL) of the microbial suspension and the peptide solutions was mixed in a 96-well plate, and the microbial growth was monitored by measuring the O.D. reading at 0 and 18 hours.

Data set [3] has as its system S. aureus (ATCC No. 29737). The conditions noted are these: ATCC No. 29737, 18 h. The protocol:
as §1

Data set [4] has as its system P. aeruginosa (ATCC No. 9027). The conditions noted are these: ATCC No. 9027, 18 h. The protocol:
as §1

For data set [5], the system named is B. subtilis (ATCC No. 23857). The conditions noted are these: ATCC No. 23857, 18 h. How it is done:
as §1

Data set [6] has as its system C. albicans (ATCC No. 10231). The conditions noted are these: ATCC No. 10231, 18 h. How it is done: as §1
Data set [7] has as its system E. aerogenes (ATCC No. 13048). The conditions noted are these: ATCC No. 13048, 18 h. How it is done:
as §1

In data set [8] the test system is E. coli. The conditions noted are these: 2. How it is done: (§2) E. coli and S. aureus were treated at MIC and 2×MIC concentrations with [(LLKK)2]4 peptide. At various time periods (0, 0.5, 1, 2, 5, 8 and 18 hours), microbial suspensions were diluted at 3 different dilutions and plated on 1.5% LB agar plates. Microbial colonies were formed and counted after 24 hours of incubation (for bacteria) or 48 hours of incubation (for yeast).

The subject of data set [9] is S. aureus. The conditions noted are these: 2. How it is done: as §2
Data set [10] relates to E. coli. The conditions noted are these: 8 h. How it is done: (§3) Microbial cells were firstly re-constituted from its lyophilized form according to the manufacturer's protocol. Bacterial cells were cultured in tryptic soy broth (TSB) at 37° C., and yeast cells were cultured in yeast mould broth (YMB) at room temperature under constant shaking at 100 rpm. Broth containing an antimicrobial peptide was prepared at various concentrations (0.98, 1.95, 3.90, 7.81, 15.63, 31.25, 62.5, 125, 250, 500 mg/L) and transferred into a 96-well tissue culture plate (100 μL/well). Microorganism was first inoculated overnight to enter its log growth-phase. An equal volume of microorganism solution (100 μL) was added into each well of the 96-well plate containing the antimicrobial peptide. Prior to this mixing, the concentration of microorganism solution was adjusted to give an initial optical density (O.D.) reading of 0.1-0.2 at 600 nm wavelength. The growth of the microorganism was observed upon introducing the antimicrobial peptide by measuring the O.D. readings at 2 hour intervals for up to 8 hours. […] Broth containing microbial cells was used as the negative control, and each test was carried out in 6 replicates. The standard deviations of the 6 readings were reported as the error bars.

In data set [11] the test system is B. subtilis. The conditions noted are these: 8 h. The protocol:
as §3

Data set [12] relates to C. albicans. The conditions noted are these: 8 h. The protocol: as §3
Data set [13] deals with rat red blood cells. In words: Hemolytic activity test. How it is done: Peptides were obtained from GL Biochem (Shanghai, China), and their fidelity was further confirmed via matrix-assisted laser desorption/ionization time-of-flight mass spectroscopy (MALDI-TOF MS, Model Autoflex II, Bruker Daltonics Inc., U.S.A.), using α-cyano-4-hydroxycinnamic acid as matrix. The purity of the peptides was also tested to be more than 95% with analytical reverse phase (RP)-HPLC. α-Cyano-4-hydroxycinnamic acid (HCCA) was purchased from Sigma-Aldrich (Singapore) and used in saturated acetonitrile/water (1:1 volume ratio) after being re-crystallized. Sodium dodecyl sulphate (SDS) micelle solution (10% w/v in DI water) was obtained from 1st Base (Malaysia) and used upon dilution to the desirable concentration range. Tryptic soy broth (TSB) powder and yeast mould broth (YMB) powder were purchased from BD Diagnostics (Singapore) and used to prepare the microbial broths according to the manufacturer's instructions. Phosphate-buffered saline solution at 10× concentration was purchased from 1st Base (Malaysia) and used after dilution to the desired concentration. Ethanol (analytical grade, 99%) and glutaraldehyde (synthetic grade, 50% in H2O) were purchased from Sigma Aldrich (Singapore) and used as received. […] Red blood cells used in the experiments were obtained from rats maintained at the Animal Handling Units of the Biomedical Research Centers (Singapore). Human peripheral blood mononuclear cells (PBMCs) were extracted from healthy blood donors and maintained with RPMI medium supplemented with 10% lowendotoxin fetal bovine serum (FBS) and 1% penicillin-streptomycin. Granulocyte macrophage-colony stimulating factor (GM-CSF) and lipopolysaccharide were purchased from Sigma-Aldrich and used as received.
Fresh red blood cells were washed with PBS for three times, and were subjected to 25 times dilution with PBS to reach a concentration of approximately 4% (in volume) of the blood cells. The red blood cell suspension (100 μL) was placed into a 96-well cell culture plate and mixed with 100 μL of the antimicrobial peptide solution in PBS at concentrations of 0.98, 1.95, 3.90, 7.81, 15.63, 31.25, 62.5, 125, 250, 500 mg/L. The mixture was then incubated at 37° C. for 1 hour to allow for the hemolysis process to take place. At the end of incubation time, the non-hemolysed red blood cells were separated by centrifugation at 13000 g for 5 minutes. Aliquots (100 μL) of the supernatant were transferred into a new 96-well plate, and the hemoglobin release was measured by checking the UV-absorbance of the samples at 576 nm using a microplate reader (TECAN, Switzerland). Two controls were provided in this assay: an untreated red blood cell suspension in PBS was used as the negative control, and a solution containing red blood cells lysed with 0.1% Triton-X was used as the positive control. Each assay was performed in 6 replicates, and the data were expressed as means and standard deviations of the 6 replicates. Percentage of hemolysis was calculated using the following formula: Hemolysis (%)=[(O.D.576 nm of the treated sample−O.D.576 nm of the negative control)/(O.D.576 nm of positive control−O.D.576 nm of negative control)]×100%. Field Emission-Scanning Electron Microscopy (FE-SEM) Analysis of Bacterial Cells

The HC50 is the concentration that lyses half of the red blood cells. Low values mean more damage to red cells, high ones less damage to red cells.

As to `CC(C)C[C@H](NC(=O)[C@H](CC(C)C)NC(=O)[C@H](CCCCN)NC(=O)[C@H](CCCCN)NC(=O)[C@H](CC(C)C)NC(=O)[C@@H](N)CC(C)C)C(=O)N[C@@H](CCCCN)C(=O)N[C@@H](CCCCN)C(=O)NCCCC[C@H](NC(=O)[C@H](CCCCN)NC(=O)[C@H](CCCCN)NC(=O)[C@H](CC(C)C)NC(=O)[C@H](CC(C)C)NC(=O)[C@H](CCCCN)NC(=O)[C@H](CCCCN)NC(=O)[C@H](CC(C)C)NC(=O)[C@@H](N)CC(C)C)C(=O)N[C@@H](CS)C(N)=O` [[(LLKK)2]2, [LLKKLLKK]2K*C—CONH2] (I: H-LLKKLLKKKC-NH2 / II: H-LLKKLLKK; amide I:9-II:C), the “hemolysis at 500 mg/L” value in data set [1] (red cells of human, 500) is given as about 18%. The compound also yielded an HC50 in [1] (red cells of human, 1 h) of over 500 mg/L. Also, in data set [2], the “MIC E. coli” value stood at 31 µg/mL (≈ 14.2 µM). The “MIC S. aureus” value in data set [3] was over 500 µg/mL. For the same compound, in [4], the “MIC P. aeruginosa” value is 8 µg/mL (≈ 3.67 µM). In data set [5], the “MIC B. subtilis” value was 8 µg/mL (≈ 3.67 µM). Moreover, in data set [6], the “MIC C. albicans” value is 63 µg/mL (≈ 28.9 µM). Moreover, the “MIC E. aerogenes” value in data set [7] was 125 µg/mL (≈ 57.4 µM).

With `CC(C)C[C@H](NC(=O)[C@H](CC(C)C)NC(=O)[C@H](CCCCN)NC(=O)[C@H](CCCCN)NC(=O)[C@H](CC(C)C)NC(=O)[C@@H](N)CC(C)C)C(=O)N[C@@H](CCCCN)C(=O)N[C@@H](CCCCN)C(=O)NCCCC[C@H](NC(=O)[C@H](CCCCN)NC(=O)[C@H](CCCCN)NC(=O)[C@H](CC(C)C)NC(=O)[C@H](CC(C)C)NC(=O)[C@H](CCCCN)NC(=O)[C@H](CCCCN)NC(=O)[C@H](CC(C)C)NC(=O)[C@@H](N)CC(C)C)C(=O)N[C@@H](CSSC[C@H](NC(=O)[C@H](CCCCNC(=O)[C@H](CCCCN)NC(=O)[C@H](CCCCN)NC(=O)[C@H](CC(C)C)NC(=O)[C@H](CC(C)C)NC(=O)[C@H](CCCCN)NC(=O)[C@H](CCCCN)NC(=O)[C@H](CC(C)C)NC(=O)[C@@H](N)CC(C)C)NC(=O)[C@H](CCCCN)NC(=O)[C@H](CCCCN)NC(=O)[C@H](CC(C)C)NC(=O)[C@H](CC(C)C)NC(=O)[C@H](CCCCN)NC(=O)[C@H](CCCCN)NC(=O)[C@H](CC(C)C)NC(=O)[C@@H](N)CC(C)C)C(N)=O)C(N)=O` [[(LLKK)2]4, [LLKKLLKK]2K*C—S—S—CK*[KKLLKKLL]2] (I: H-LLKKLLKKKC-NH2 / II: H-LLKKLLKKKC-NH2 / III: H-LLKKLLKK / IV: H-LLKKLLKK; amide I:9-III:C, II:9-IV:C; disulfide I:10-II:10), the “hemolytic activity towards human red blood cells, in words” value in data set [1] is reported as “only hemolytic at an acceptable level”. In [1] (red cells of human, 1 h), this compound yielded a concentration for 50% haemolysis (HC50) of over 500 mg/L. In [3], the “MIC S. aureus” value was 400 µg/mL (≈ 91.8 µM). Further, in [4], the “MIC P. aeruginosa” value came out at 8 µg/mL (≈ 1.84 µM). The “MIC B. subtilis” value in data set [5] was 16 µg/mL (≈ 3.67 µM). In addition, the “MIC C. albicans” value in [6] amounted to 125 µg/mL (≈ 28.7 µM). In addition, in [7], the “MIC E. aerogenes” value amounted to 63 µg/mL (≈ 14.5 µM). Moreover, the “cells killed after 1 hour” value in [8] (1 h) and in [9] (1 h) was “more than 50%” each time. The “cells killed after 8 hours” value in data set [8] (8 h) and in data set [9] (8 h) was “more than 99.99%” each time.

In the case of “LLKKLLKKLLKKLLKK-NH2 [(LLKK)4, LLKKLLKKLLKKLLKK-NH2]”, the “MIC E. coli” value in data set [10] is over 50 µg/mL; in [2], 12.5 µg/mL. Besides, the “MIC B. subtilis” value in [11] stood at 10 µg/mL; in data set [5], 6.3 µg/mL. Also, the “MIC C. albicans” value in data set [12] and in data set [6] was over 50 µg/mL throughout. Also, the 50% haemolytic concentration (HC50) in data set [1] is recorded as about 37.5 mg/L. The “hemolytic activity towards human red blood cells, in words” value in [1] is given as “significant hemolysis at concentrations around its MICs”. Further, in [3], the “MIC S. aureus” value is over 50 µg/mL. Also, the “MIC P. aeruginosa” value in data set [4] was 6.3 µg/mL. Also, in data set [7], the “MIC E. aerogenes” value worked out at 25 µg/mL. Also, in data set [13], the “hemolysis at the MIC against B. subtilis” value was about 30%. Moreover, the “HC50 (50% hemolytic concentration)” value in [13] (red cells of rat, 1 h) is given as about 24 mg/L.
